Data published in patent US9988397B2, “ERK inhibitors” (Merck Sharp & Dohme Corp., priority 2014, dated 2018).

Molecular target: phosphorylated active hERK2 enzyme (Homo sapiens, UniProt P28482)
Test: Active human ERK2 (hERK2) Activity Assay (IMAP-FP)
Type: biochemical
Details: 10 point titration, 3 μM starting concentration, 0.5 nM hERK2, 30 μM ATP, 60 minutes reaction
Protocol: Activated ERK2 activity was determined in an IMAP-FP assay (Molecular Devices). Using this assay format, the potency (IC50) of each compound was determined from a 10 point (1:3 serial dilution, 3 μM starting compound concentration) titration curve using the following outlined procedure. […] Following a 15 minute compound & enzyme incubation, each reaction was initiated by the addition of 10 μL kinase buffer containing 2.45 μM ERK2 IMAP substrate peptides and 75 μM ATP. The final reaction in each well of 25 μL consists of 0.5 nM hERK2, 900 nM unlabeled peptide, 80 nM labeled-peptide, and 30 μM ATP. Phosphorylation reactions were allowed to proceed for 60 minutes and were immediately quenched by the addition of 60 μL IMAP detection beads (1:1000 dilutions) in IMAP binding buffer (Molecular Devices) with 24 mM NaCl. Plates were read on EnVision reader after 60 minutes binding equilibration using Fluorescence Polarization protocol (Perkin Elmer).

Chain of phosphorylated active hERK2 enzyme (P28482 whole entry): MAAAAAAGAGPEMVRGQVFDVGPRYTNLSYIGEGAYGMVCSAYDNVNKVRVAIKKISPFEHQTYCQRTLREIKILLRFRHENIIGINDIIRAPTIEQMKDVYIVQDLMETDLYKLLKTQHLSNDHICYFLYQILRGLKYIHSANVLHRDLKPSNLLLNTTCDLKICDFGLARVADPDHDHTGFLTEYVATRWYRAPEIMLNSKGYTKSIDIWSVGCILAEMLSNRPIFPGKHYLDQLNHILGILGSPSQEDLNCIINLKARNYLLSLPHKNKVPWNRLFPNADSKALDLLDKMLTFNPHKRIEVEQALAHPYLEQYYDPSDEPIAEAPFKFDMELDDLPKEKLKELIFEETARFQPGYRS

Row | IC50 | SMILES
1 | 5.17 nM | C=C1COC[C@H](c2ccccc2)NC(=O)Nc2cc3cnn(CC)c3c(n2)C1 [Example 57, (9 S)-1-ethyl-13-methylidene-9-phenyl-1,6,9,10,13,14-hexahydro-12H-5,15-(azeno)pyrazolo[4,3-i][1,4,6]oxadiazacyclotetradecin-7(8H)-one]
2 | 5.09 nM | CCn1ncc2cc3nc(c21)CC(CO)COC[C@H](c1ccccc1)NC(=O)N3 (some centres unmarked) [Example 58, (9 S)-1-ethyl-13-(hydroxymethyl)-9-phenyl-1,6,9,10,13,14-hexahydro-12H-5,15-(azeno)pyrazolo[4,3-i][1,4,6]oxadiazacyclotetradecin-7(8H)-one]
